Reference: patent US7906507B2, “Oxadiazoanthracene compounds for the treatment of diabetes” (TransTech Pharma, Inc., priority 2008, dated 2011)

Target: T1, cloned human GLP-1 receptor (Homo sapiens, UniProt P43220)
T1 construct: expressed in transfected cells; host or cells: CHO or HEK-293 cells
Assay: Functional cell-based assay: cAMP functional assay
Conditions: for Emax: 0.5 h, percentage relative to maximal GLP-1-induced cAMP accumulation, na = not active in the assay, read-out: % activation
Method: Following overnight incubation of cells, media was removed, and compounds (at concentrations ranging from 0.0001 to 100 μM) were added to monolayer cells in Iscove's modified dulbecco's medium (IMDM), 100 μM RO 20-1724 PDE inhibitor, 0.1% BSA, 2% DMSO in a final volume of 100 μL, and incubated for 30 min at 37° C. 95% O2, 5% CO2 in a humidified incubator. cAMP was quantitated using a homogenous time-resolved fluorescence detection system (cAMP dynamic, CIS bio International).

T1 sequence (P43220 24-463): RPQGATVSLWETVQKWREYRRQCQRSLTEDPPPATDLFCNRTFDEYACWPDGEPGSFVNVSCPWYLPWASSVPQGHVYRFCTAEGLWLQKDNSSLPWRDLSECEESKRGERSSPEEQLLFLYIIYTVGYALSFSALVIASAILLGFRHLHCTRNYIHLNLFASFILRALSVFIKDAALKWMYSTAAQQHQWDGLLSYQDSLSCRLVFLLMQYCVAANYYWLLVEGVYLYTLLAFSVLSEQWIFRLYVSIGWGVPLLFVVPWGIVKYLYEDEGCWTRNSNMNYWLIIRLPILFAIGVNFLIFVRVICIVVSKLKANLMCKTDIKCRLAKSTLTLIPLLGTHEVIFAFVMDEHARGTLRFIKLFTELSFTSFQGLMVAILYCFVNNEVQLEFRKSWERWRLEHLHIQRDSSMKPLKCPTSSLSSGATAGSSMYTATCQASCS

Row | Structure (SMILES) | EC50 | Emax
1 | N#Cc1ccc(-c2ccc(C[C@H](NC(=O)[C@@H]3Cc4cc5c(cc4CN3Cc3ccccc3C#N)OC(c3ccc(OCc4ccc(Cl)c(Cl)c4)cc3)C(=O)N5)C(=O)O)cc2)cc1 (stereo partly drawn) [Example 53, (S)-2-({(S)-6-(2-Cyano-benzyl)-3-[4-(3,4-dichloro-benzyloxy)-phenyl]-2-oxo-2,3,5,6,7,8-hexahydro-1H-4-oxa-1,6-diaza-anthracene-7-carbonyl}-amino)-3-(4′-cyano-biphenyl-4-yl)-propionic acid] | 1040 nM | 52.5%
2 | N#Cc1ccc(-c2ccc(C[C@H](NC(=O)[C@@H]3Cc4cc5c(cc4CN3C(=O)c3ccccc3)OC(c3ccc(OCc4cnc(Cl)c(Cl)c4)cc3)C(=O)N5)C(=O)O)cc2)cc1 (stereo partly drawn) [Example 64, (S)-2-({(S)-6-Benzoyl-3-[4-(5,6-dichloro-pyridin-3-ylmethoxy)-phenyl]-2-oxo-2,3,5,6,7,8-hexahydro-1H-4-oxa-1,6-diaza-anthracene-7-carbonyl}-amino)-3-(4′-cyano-biphenyl-4-yl)-propionic acid] | 190 nM | 36%
3 | CC[C@@H](c1ccccc1)N1Cc2cc3c(cc2C[C@H]1C(=O)N[C@@H](Cc1ccc(-c2ccc(OC)cc2)cc1)C(=O)O)N(C)C(=O)[C@H](c1ccc(OCc2ccc(Cl)c(Cl)c2)cc1)O3 [Example 94, (S)-2-{[(3S,7S)-3-[4-(3,4-Dichloro-benzyloxy)-phenyl]-1-methyl-2-oxo-6-((S)-1-phenyl-propyl)-2,3,5,6,7,8-hexahydro-1H-4-oxa-1,6-diaza-anthracene-7-carbonyl]-amino}-3-(4′-methoxy-biphenyl-4-yl)-propionic acid] | 424 nM | 41%
4 | N#Cc1ccc(-c2ccc(C[C@H](NC(=O)[C@@H]3Cc4cc5c(cc4CN3S(=O)(=O)c3cccs3)OC(c3ccc(OCc4ccc(Cl)c(Cl)c4)cc3)C(=O)N5)C(=O)O)cc2)cc1 (stereo partly drawn) [Example 32, (S)-3-(4′-Cyano-biphenyl-4-yl)-2-{[(S)-3-[4-(3,4-dichloro-benzyloxy)-phenyl]-2-oxo-6-(thiophene-2-sulfonyl)-2,3,5,6,7,8-hexahydro-1H-4-oxa-1,6-diaza-anthracene-7-carbonyl]-amino}-propionic acid] | 700 nM | 8.3%
5 | Cc1ccc(-c2ccc(C[C@H](NC(=O)[C@@H]3Cc4cc5c(cc4CN3Cc3ccccn3)OC(c3ccc(OCc4ccc(Cl)c(Cl)c4)cc3)C(=O)N5)C(=O)O)cc2)cc1 (stereo partly drawn) [Example 85, (S)-2-({(S)-3-[4-(3,4-Dichloro-benzyloxy)-phenyl]-2-oxo-6-pyridin-2-ylmethyl-2,3,5,6,7,8-hexahydro-1H-4-oxa-1,6-diaza-anthracene-7-carbonyl}-amino)-3-(4′-methyl-biphenyl-4-yl)-propionic acid] | 2000 nM | 55%
6 | N#Cc1ccc(-c2ccc(C[C@H](NC(=O)[C@@H]3Cc4cc5c(cc4CN3C(=O)C3CCCC3)OC(c3ccc(OCc4ccc(Cl)c(Cl)c4)cc3)C(=O)N5)C(=O)O)cc2)cc1 (stereo partly drawn) [Example 16, (S)-3-(4′-Cyano-biphenyl-4-yl)-2-({(S)-6-cyclopentanecarbonyl-3-[4-(3,4-dichloro-benzyloxy)-phenyl]-2-oxo-2,3,5,6,7,8-hexahydro-1H-4-oxa-1,6-diaza-anthracene-7-carbonyl}-amino)-propionic acid] | 657 nM | 78%
7 | N#Cc1ccc(-c2ccc(C[C@H](NC(=O)[C@@H]3Cc4cc5c(cc4CN3CC#Cc3ccsc3)OC(c3ccc(OCc4ccc(Cl)c(Cl)c4)cc3)C(=O)N5)C(=O)O)cc2)cc1 (stereo partly drawn) [Example 56, (S)-3-(4′-Cyano-biphenyl-4-yl)-2-{[(S)-3-[4-(3,4-dichloro-benzyloxy)-phenyl]-2-oxo-6-(3-thiophen-3-yl-prop-2-ynyl)-2,3,5,6,7,8-hexahydro-1H-4-oxa-1,6-diaza-anthracene-7-carbonyl]-amino}-propionic acid] | 370 nM | 40.1%
8 | CC(C)(C)OC(=O)N1Cc2cc3c(cc2C[C@H]1C(=O)N[C@@H](Cc1ccc(-c2ccc(C#N)cc2)cc1)C(=O)O)NC(=O)C(c1ccc(OCc2ccc(Cl)c(Cl)c2)cc1)O3 (stereo partly drawn) [Example 29, (S)-7-[(S)-1-Carboxy-2-(4′-cyano-biphenyl-4-yl)-ethylcarbamoyl]-3-[4-(3,4-dichloro-benzyloxy)-phenyl]-2-oxo-1,2,3,5,7,8-hexahydro-4-oxa-1,6-diaza-anthracene-6-carboxylic acid tert-butyl ester] | 290 nM | 17%
9 | CC[C@@H](c1ccccc1)N1Cc2cc3c(cc2C[C@H]1C(=O)N[C@@H](Cc1ccc(-c2ccc(C#N)cc2)cc1)C(=O)O)N(C)C(=O)[C@@H](c1ccc(OCc2ccc(Cl)c(Cl)c2)cc1)O3 [Example 86, (S)-3-(4′-Cyano-biphenyl-4-yl)-2-{[(3R,7S)-3-[4-(3,4-dichloro-benzyloxy)-phenyl]-1-methyl-2-oxo-6-((S)-1-phenyl-propyl)-2,3,5,6,7,8-hexahydro-1H-4-oxa-1,6-diaza-anthracene-7-carbonyl]-amino}-propionic acid] | 59.3 nM | 58%
10 | COc1ccc(COc2ccc(C3Oc4cc5c(cc4NC3=O)C[C@@H](C(=O)N[C@@H](Cc3ccc(-c4ccc(C#N)cc4)cc3)C(=O)O)N(C(=O)c3ccccc3)C5)cc2)cc1C(F)(F)F (stereo partly drawn) [Example 62, (S)-2-({(S)-6-Benzoyl-3-[4-(4-methoxy-3-trifluoromethyl-benzyloxy)-phenyl]-2-oxo-2,3,5,6,7,8-hexahydro-1H-4-oxa-1,6-diaza-anthracene-7-carbonyl}-amino)-3-(4′-cyano-biphenyl-4-yl)-propionic acid] | 1000 nM | 15%
11 | N#Cc1ccc(-c2ccc(C[C@H](NC(=O)[C@@H]3Cc4cc5c(cc4CN3Cc3cccc(Br)n3)OC(c3ccc(OCc4ccc(Cl)c(Cl)c4)cc3)C(=O)N5)C(=O)O)cc2)cc1 (stereo partly drawn) [Example 45, (S)-2-({(S)-6-(6-Bromo-pyridin-2-ylmethyl)-3-[4-(3,4-dichloro-benzyloxy)-phenyl]-2-oxo-2,3,5,6,7,8-hexahydro-1H-4-oxa-1,6-diaza-anthracene-7-carbonyl}-amino)-3-(4′-cyano-biphenyl-4-yl)-propionic acid] | 1000 nM | 18%
12 | CN1C(=O)C(c2ccc(OCc3ccc(Cl)c(Cl)c3)cc2)Oc2cc3c(cc21)C[C@@H](C(=O)N[C@@H](Cc1ccc(-c2ccc(C#N)cc2)cc1)C(=O)O)N(C1CCCC1)C3 (stereo partly drawn) [Example 74] | 327 nM | 19%
13 | N#Cc1ccc(-c2ccc(C[C@H](NC(=O)[C@@H]3Cc4cc5c(cc4CN3C(=O)c3cccs3)OC(c3ccc(OCc4cnc(Cl)c(Cl)c4)cc3)C(=O)N5)C(=O)O)cc2)cc1 (stereo partly drawn) [Example 66, (S)-3-(4′-Cyano-biphenyl-4-yl)-2-{[(S)-3-[4-(5,6-dichloro-pyridin-3-ylmethoxy)-phenyl]-2-oxo-6-(thiophene-2-carbonyl)-2,3,5,6,7,8-hexahydro-1H-4-oxa-1,6-diaza-anthracene-7-carbonyl]-amino}-propionic acid] | 950 nM | 21%
14 | N#Cc1ccc(-c2ccc(C[C@H](NC(=O)[C@@H]3Cc4cc5c(cc4CN3C(=O)c3cccc4ccccc34)OC(c3ccc(OCc4ccc(Cl)c(Cl)c4)cc3)C(=O)N5)C(=O)O)cc2)cc1 (stereo partly drawn) [Example 26, (S)-3-(4′-Cyano-biphenyl-4-yl)-2-{[(S)-3-[4-(3,4-dichloro-benzyloxy)-phenyl]-6-(naphthalene-1-carbonyl)-2-oxo-2,3,5,6,7,8-hexahydro-1H-4-oxa-1,6-diaza-anthracene-7-carbonyl]-amino}-propionic acid] | 1100 nM | 14%
15 | Cc1noc(C)c1S(=O)(=O)N1Cc2cc3c(cc2C[C@H]1C(=O)N[C@@H](Cc1ccc(-c2ccc(C#N)cc2)cc1)C(=O)O)N(C)C(=O)C(c1ccc(OCc2ccc(Cl)c(Cl)c2)cc1)O3 (stereo partly drawn) [Example 96, (S)-3-(4′-Cyano-biphenyl-4-yl)-2-{[(S)-3-[4-(3,4-dichloro-benzyloxy)-phenyl]-6-(3,5-dimethyl-isoxazole-4-sulfonyl)-1-methyl-2-oxo-2,3,5,6,7,8-hexahydro-1H-4-oxa-1,6-diaza-anthracene-7-carbonyl]-amino}-propionic acid] | 362 nM | 8.5%
16 | N#Cc1ccc(-c2ccc(C[C@H](NC(=O)[C@@H]3Cc4cc5c(cc4CN3Cc3ncc[nH]3)OC(c3ccc(OCc4ccc(Cl)c(Cl)c4)cc3)C(=O)N5)C(=O)O)cc2)cc1 (stereo partly drawn) [Example 47, (S)-3-(4′-Cyano-biphenyl-4-yl)-2-{[(S)-3-[4-(3,4-dichloro-benzyloxy)-phenyl]-6-(1H-imidazol-2-ylmethyl)-2-oxo-2,3,5,6,7,8-hexahydro-1H-4-oxa-1,6-diaza-anthracene-7-carbonyl]-amino}-propionic acid] | 1200 nM | 29%
17 | N#Cc1ccc(-c2ccc(C[C@H](NC(=O)[C@@H]3Cc4cc5c(cc4CN3S(=O)(=O)c3cccc([N+](=O)[O-])c3)OC(c3ccc(OCc4ccc(Cl)c(Cl)c4)cc3)C(=O)N5)C(=O)O)cc2)cc1 (stereo partly drawn) [Example 52, (S)-3-(4′-Cyano-biphenyl-4-yl)-2-{[(S)-3-[4-(3,4-dichloro-benzyloxy)-phenyl]-6-(3-nitro-benzenesulfonyl)-2-oxo-2,3,5,6,7,8-hexahydro-1H-4-oxa-1,6-diaza-anthracene-7-carbonyl]-amino}-propionic acid] | 810 nM | 33%
18 | CN1C(=O)C(c2ccc(OCc3ccc(Cl)c(Cl)c3)cc2)Oc2cc3c(cc21)C[C@@H](C(=O)N[C@@H](Cc1ccc(-c2ccc(C#N)cc2)cc1)C(=O)O)N(CC#Cc1ccccc1)C3 (stereo partly drawn) [Example 69, (S)-3-(4′-Cyano-biphenyl-4-yl)-2-{[(S)-3-[4-(3,4-dichloro-benzyloxy)-phenyl]-1-methyl-2-oxo-6-(3-phenyl-prop-2-ynyl)-2,3,5,6,7,8-hexahydro-1H-4-oxa-1,6-diaza-anthracene-7-carbonyl]-amino}-propionic acid] | 574 nM | 51%
